Experimental data published in patent US4987131A, “4H-triazolo[4,3-a][1,4]benzodiazepines” (Roussel Uclaf, priority 1985, dated 1991).

Legend:
[1] = target: T1, cyclo-oxygenase contained in a microsomal preparation of seminal vesicles of a bull (Bos taurus, UniProt O62664); assay: Action on biosynthesis of prostaglandins in vitro; assay type: biochemical; conditions: arachidonic acid 15×10^-6 M, incubated 30 minutes at 37° C., radioimmuno test; read-out: CI50, inhibiting activity calculated on the sum of PGE2 and PGF2 alpha
T1 construct: cyclo-oxygenase contained in a microsomal preparation of seminal vesicles of a bull; from tissue; host or cells: bull seminal vesicles, microsomal preparation
T1 sequence (O62664 25-600): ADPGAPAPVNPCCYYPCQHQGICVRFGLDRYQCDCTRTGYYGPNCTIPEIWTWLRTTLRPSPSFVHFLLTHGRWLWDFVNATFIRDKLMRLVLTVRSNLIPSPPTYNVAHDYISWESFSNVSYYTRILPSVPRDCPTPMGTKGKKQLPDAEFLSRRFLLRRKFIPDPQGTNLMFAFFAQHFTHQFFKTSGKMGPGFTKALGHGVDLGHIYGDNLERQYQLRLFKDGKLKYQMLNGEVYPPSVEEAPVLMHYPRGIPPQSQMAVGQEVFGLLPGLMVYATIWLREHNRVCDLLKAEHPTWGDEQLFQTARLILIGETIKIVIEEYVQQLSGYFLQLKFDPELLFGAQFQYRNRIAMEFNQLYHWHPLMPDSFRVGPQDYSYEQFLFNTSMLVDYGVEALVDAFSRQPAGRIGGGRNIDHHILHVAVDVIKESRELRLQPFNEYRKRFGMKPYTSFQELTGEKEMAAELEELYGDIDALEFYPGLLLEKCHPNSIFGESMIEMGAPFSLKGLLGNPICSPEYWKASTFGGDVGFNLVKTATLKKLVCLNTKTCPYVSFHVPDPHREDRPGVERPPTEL
Description: A. Action on biosynthesis of prostaglandins in vitro.
Arachidonic acid is converted into prostaglandins (PGs) of series 2 by a cyclo-oxygenase contained in a microsomal preparation of seminal vesicles of a bull carried out according to the Tagekuchi et al method [Mechanism of prostaglandin biosynthesis. I characterization and essay of bovine prostaglandin synthetase. Biochemistry, 1971, 10, 2372]. The precursor, at […] of 15×10^-6 M, was incubated for 30 minutes at 37° C. in the presence of a fixed concentration in proteins of the preparation of seminal vesicles and of the product of Example 1. After blocking the reaction by immersion in boiling water for one minute, then centrifuging, the prostaglandins were evaluated by radioimmuno test inspired by that of Dray et al [Radioimmunoessay of prostaglandins F, E1 and E2 in human plasma. European J. Clin. Invest., 1975 5, 311]. This enabled the PGE2 and PGF2 alpha to be evaluated specifically and the inhibiting activity of the product (CI50) is calculated on the sum of these two prostaglandins. The CI50 found was 2×10^ -6 M.

[2] = test system: stretchings induced by acetic acid in mice; assay: Analgesic activity: stretchings induced by acetic acid; assay type: in vivo; conditions: Mus musculus, po, 0.25 h, orally half an hour before i.p. acetic acid 100 mg/kg, observation 15 minutes, read-out: DA50, dose giving a decrease of 50% in the number of stretchings
Description: B. Study of analgesic activity
The test used was stretchings induced by acetic acid described by R. Koster et al [Fed. Proc. 1959, 1B 412] according to which the intraperitoneal injection of acetic acid induces in mice repeated stretchings and torsional movements which can persist for more than 6 hours. Analgesics prevent or decrease this syndrome which can considered as the externalization of a diffuse abdominal pain. The acetic acid was administered at a dose of 100 mg/kg or 1 ml of a 1% aqueous solution per 100 g of body weight and the compound of Example 1 was orally administered half an hour before the injection of acetic acid, the mice having been without food for 7 hours. The stretchings were observed and counted for each mouse for a period of observation of 15 minutes and the results were expressed as active dose 50 which is the dose which enabled a decrease of 50% to be obtained in the number of stretchings in comparison with the control animals. The DA50 found was 4 mg/kg.

[3] = test system: arthritis induced by carrageenin in rats; assay: Anti-inflammatory activity: arthritis induced by carrageenin; assay type: in vivo; conditions: Rattus norvegicus, po; male rats, orally, simultaneously with carrageenin in the tibio-tarsal articulation, paw volume; read-out: DA50, dose giving a decrease in the oedema of 50%
Description: C. Anti-inflammatory activity was determined by the test for arthritis induced by carrageenin in rats and 0.5 ml of a sterile suspension at 1% of carrageenin was administered in the tibio-tarsal articulation of a back paw in male rats weighing from 130 to 150 g. Simultaneously, the product of Example 1 was orally administered in a suspension of carboxymethylcellulose at 0.25% and of Tween at 0.02%. The volume of the paw was measured before the administration, then 2 hours, 4 hours, 6 hours, 8 hours and 24 hours afterwards. The intensity of the inflammation was at its highest 4 to 6 hours after the injection of carrageenin and the difference in volume of the paws of the treated animals and the control animals was evidence of the anti-inflammatory action of the medicament. The DA50 was determined, which was the dose which enabled a decrease in the oedema of 50% to be obtained.

Compound: COc1ccc(-c2nnc3n2-c2ccccc2C(C)=NC3C)cc1 (stereo not drawn) [Example 1, 4,6-dimethyl-1-(4-methoxyphenyl)-4H-1,2,4-triazolo[4,3-a][1,4]benzodiazepine]
- IC50 [1]: 2000 nM
- ED50 [2]: 4 mg/kg
- ED50 [3]: 50 mg/kg
